Data: patent US20040142048A1, “Compositions based on proanthocyanadin-catechin synergies for prevention and treatment of cancer” (priority 2004, published 2004)

Assays:
[1] = Clearance of EGCg from the blood; details: in vivo
cancer cells = test: Effect of EGCg on cancer cell growth and apoptosis; type: cell-based

(−)-epigallocatechin gallate [EGCg]
clearance from the blood [1]: rapidly cleared from the blood and metabolized
time cancer cells must be inhibited from growing before EGCg-induced apoptosis occurs (cancer cells): 48 to 72 h
growth of cancer cells challenged with EGCg (cancer cells; 10^−7 M EGCg every two hours during the day): growth is inhibited
reversibility of the effect on cancer cell growth (cancer cells; EGCg removed, cells resume normal rates of growth): reversible
